From US20070254930A1, “Oral Preparation Having Improved Bioavailability” (DONG WHA PHARM. IND. CO., LTD., priority 2004, published 2007)

What was measured:
[1] = Gelation experiment: viscosity of aqueous solutions; type: physicochemical; settings: for Viscosity: Brookfield DV-II+, 10° C. ± 0.3° C., spindle S 51
Procedure: The following test was carried out to evaluate the degree of gelation depending on the concentration of 2 methanesulfonic acid salt of the compound of Chemical Formula 1 according to the present invention.
200 mg of 2 methanesulfonic acid salt of the compound of Chemical Formula 1 was dissolved in 10 mL of water (20 mg/mL). The solution was diluted with water to give 20, 10, 5, and 2.5 mg/mL. Viscosity of these diluted solutions was measured according to the following test conditions described in Table 1, and also the results for the test are shown in Table 1.

[2] = pH-dependent water solubility; type: physicochemical; settings: pH about pH 5 or more

For CS(=O)(=O)O.CS(=O)(=O)O.Cc1nc(-c2ccc(OCCCCCOc3ccc(C(=N)NO)cc3)cc2)c(C(C)C)s1 [N-hydroxy-4-{5-[4-(5-isopropyl-2-methyl-1,3-thiazol-4-yl)phenoxy]pentoxy}-benzamidine 2 methanesulfonic acid salt], the Viscosity ([1]; 2.5 mg/ml in water) was 6.34 cP, the Viscosity ([1]; 5 mg/ml in water) was 11.9 cP and the Viscosity ([1]; 10 mg/ml in water) was 20.0 cP. For the same compound, the Viscosity ([1]; 20 mg/ml in water) was 78.9 cP and the “gelation property in aqueous solution (in words)” value ([1]; aqueous solution) was “high gelation property”.
In the case of Cc1nc(-c2ccc(OCCCCCOc3ccc(C(=N)NO)cc3)cc2)c(C(C)C)s1 [compound of Chemical Formula 1, N-hydroxy-4-{5-[4-(5-isopropyl-2-methyl-1,3-thiazol-4-yl)phenoxy]pentoxy}-benzamidine], the “solubility in aqueous condition (in words)” value [2] is reported as “practically insoluble”.
